# Data from ChEMBL document CHEMBL5154671 (Eur J Med Chem, 2022).
# pEC50: −log10 of the molar value. Activity calls are given as the source filed them. No cut-off for these calls is given here.
# Columns and labels:
# [1] = target: Free fatty acid receptor 1 (Homo sapiens, UniProt O14842); test: Agonist activity at human FFA1 expressed in CHO cells measured by FLIPR assay; assay type: functional, cell-based
# [2] = target: T1, Peroxisome proliferator-activated receptor alpha (Homo sapiens, UniProt Q07869); test: Agonist activity at human PPARalpha measured by dual luciferase reporter gene assay
# T1 sequence (Q07869 whole entry): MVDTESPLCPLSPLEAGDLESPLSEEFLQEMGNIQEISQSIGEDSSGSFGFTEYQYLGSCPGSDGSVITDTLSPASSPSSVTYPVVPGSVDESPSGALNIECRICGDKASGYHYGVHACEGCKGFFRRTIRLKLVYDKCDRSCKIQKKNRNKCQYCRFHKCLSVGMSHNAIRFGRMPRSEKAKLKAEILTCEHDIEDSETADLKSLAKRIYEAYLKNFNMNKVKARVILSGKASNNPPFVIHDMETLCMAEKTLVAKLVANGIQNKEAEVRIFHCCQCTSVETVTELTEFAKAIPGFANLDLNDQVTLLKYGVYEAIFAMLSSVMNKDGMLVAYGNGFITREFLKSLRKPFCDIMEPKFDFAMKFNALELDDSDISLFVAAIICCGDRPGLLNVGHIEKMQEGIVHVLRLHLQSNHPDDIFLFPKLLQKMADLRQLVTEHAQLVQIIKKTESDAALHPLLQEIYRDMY
# [3] = target: T2, Peroxisome proliferator-activated receptor delta (Homo sapiens, UniProt Q03181); test: Agonist activity at human PPARdelta measured by dual luciferase reporter gene assay
# T2 sequence (Q03181 whole entry): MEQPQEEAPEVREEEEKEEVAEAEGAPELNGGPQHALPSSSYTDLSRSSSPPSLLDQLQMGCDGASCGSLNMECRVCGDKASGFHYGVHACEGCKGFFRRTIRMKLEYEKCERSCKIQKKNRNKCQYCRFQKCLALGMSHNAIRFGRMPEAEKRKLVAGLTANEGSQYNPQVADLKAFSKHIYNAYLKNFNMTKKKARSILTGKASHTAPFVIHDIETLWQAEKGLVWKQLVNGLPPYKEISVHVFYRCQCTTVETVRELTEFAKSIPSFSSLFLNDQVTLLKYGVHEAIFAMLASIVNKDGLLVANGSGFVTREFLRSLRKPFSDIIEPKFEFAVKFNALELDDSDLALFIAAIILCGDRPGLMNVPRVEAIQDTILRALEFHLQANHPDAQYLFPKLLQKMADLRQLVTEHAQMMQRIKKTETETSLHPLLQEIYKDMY
# Mus musculus [4] = test: Hypolipidemic activity in Triton1339W-induced hyperlipidemic ICR mouse model assessed as reduction in plasma TC level at 80 mg/kg, administered once daily for 5 days; assay type: functional, organism-based; details: time 5.0 day
# [5] = Clearance in rat liver microsomes in presence of NADPH measured by LC/MS analysis; assay type: ADME, Microsome; details: read-out: CLH
# [6] = Half-life in rat liver microsomes in presence of NADPH measured by LC/MS analysis; assay type: ADME, Microsome
# Mus musculus [7] = test: Anti-NASH activity in high-fat/high-sugar diet and CCl4-induced nonalcoholic steatohepatitis male C57BL/6 mouse assessed as decrease in serum TG level at 100 mg/kg, po administered for 4 weeks; assay type: functional, organism-based
# Mus musculus [8] = test: Anti-NASH activity in high-fat/high-sugar diet and CCl4-induced nonalcoholic steatohepatitis male C57BL/6 mouse assessed as increase in HDL level at 100 mg/kg, po administered for 4 weeks; assay type: functional, organism-based
# Mus musculus [9] = test: Anti-NASH activity in high-fat/high-sugar diet and CCl4-induced nonalcoholic steatohepatitis male C57BL/6 mouse assessed as decrease in liver non-esterified fatty acid contents at 100 mg/kg, po administered for 4 weeks; assay type: functional, organism-based
# Mus musculus [10] = test: Anti-NASH activity in high-fat/high-sugar diet and CCl4-induced nonalcoholic steatohepatitis male C57BL/6 mouse assessed as decrease in hepatocyte ballooning score at 100 mg/kg, po administered for 4 weeks; assay type: functional, organism-based
# Mus musculus [11] = test: Protection against liver fibrosis in high-fat/high-sugar diet and CCl4-induced nonalcoholic steatohepatitis male C57BL/6 mouse assessed as decrease in collagen area at 100 mg/kg, po administered for 4 weeks; assay type: functional, organism-based
# Mus musculus [12] = test: Protection against liver fibrosis in high-fat/high-sugar diet and CCl4-induced nonalcoholic steatohepatitis male C57BL/6 mouse assessed as decrease in alpha-SMA expression in liver at 100 mg/kg, po administered for 4 weeks; assay type: functional, organism-based
# Mus musculus [13] = test: Anti-NASH activity in high-fat/high-sugar diet and CCl4-induced nonalcoholic steatohepatitis male C57BL/6 mouse assessed as decrease in ACC mRNA expression at 100 mg/kg, po administered for 4 weeks; assay type: functional, organism-based
# Mus musculus [14] = test: Anti-NASH activity in high-fat/high-sugar diet and CCl4-induced nonalcoholic steatohepatitis male C57BL/6 mouse assessed as decrease in FAS mRNA expression at 100 mg/kg, po administered for 4 weeks; assay type: functional, organism-based
# Mus musculus [15] = test: Anti-inflammatory activity in high-fat/high-sugar diet and CCl4-induced nonalcoholic steatohepatitis male C57BL/6 mouse assessed as decrease in IL-1beta mRNA expression at 100 mg/kg, po administered for 4 weeks; assay type: functional, organism-based
# Mus musculus [16] = test: Anti-fibrotic activity in high-fat/high-sugar diet and CCl4-induced nonalcoholic steatohepatitis male C57BL/6 mouse assessed as decrease in TGF-beta mRNA expression at 100 mg/kg, po administered for 4 weeks; assay type: functional, organism-based
# Mus musculus [17] = test: Anti-fibrotic activity in high-fat/high-sugar diet and CCl4-induced nonalcoholic steatohepatitis male C57BL/6 mouse assessed as decrease in TIMP-1 mRNA expression at 100 mg/kg, po administered for 4 weeks; assay type: functional, organism-based
# Mus musculus [18] = test: Anti-fibrotic activity in high-fat/high-sugar diet and CCl4-induced nonalcoholic steatohepatitis male C57BL/6 mouse assessed as decrease in COL1A1 mRNA expression at 100 mg/kg, po administered for 4 weeks; assay type: functional, organism-based
# Mus musculus [19] = test: Antioxidant activity in high-fat/high-sugar diet and CCl4-induced nonalcoholic steatohepatitis male C57BL/6 mouse assessed as increase in catalase mRNA expression at 100 mg/kg, po administered for 4 weeks; assay type: functional, organism-based
# Mus musculus [20] = test: Antioxidant activity in high-fat/high-sugar diet and CCl4-induced nonalcoholic steatohepatitis male C57BL/6 mouse assessed as increase in SOD1 mRNA expression at 100 mg/kg, po administered for 4 weeks; assay type: functional, organism-based
# Mus musculus [21] = test: Protection against CCl4-induced liver fibrosis in male C57BL/6 mouse assessed as decrease in collagen area in liver at 100 mg/kg measured by masson staining; assay type: functional, organism-based
# Mus musculus [22] = test: Protection against CCl4-induced liver fibrosis in male C57BL/6 mouse assessed as decrease in hepatic hydroxyproline content at 100 mg/kg […]; assay type: functional, organism-based
# [23] = Acute toxicity in ICR mouse assessed as change in serum ALB level at 500 mg/kg, IG; assay type: organism-based; details: in vivo, po
# [24] = Acute toxicity in ICR mouse assessed as change in serum ALT level at 500 mg/kg, IG; assay type: organism-based; details: in vivo, po
# [25] = Acute toxicity in ICR mouse assessed as change in serum TBIL level at 500 mg/kg, IG; assay type: organism-based; details: in vivo, po
# [26] = Acute toxicity in ICR mouse assessed as change in serum DBIL level at 500 mg/kg, IG; assay type: organism-based; details: in vivo, po
# [27] = Acute toxicity in ICR mouse assessed as change in serum urea level at 500 mg/kg, IG; assay type: organism-based; details: in vivo, po
# Sequence of Free fatty acid receptor 1 (O14842 whole entry): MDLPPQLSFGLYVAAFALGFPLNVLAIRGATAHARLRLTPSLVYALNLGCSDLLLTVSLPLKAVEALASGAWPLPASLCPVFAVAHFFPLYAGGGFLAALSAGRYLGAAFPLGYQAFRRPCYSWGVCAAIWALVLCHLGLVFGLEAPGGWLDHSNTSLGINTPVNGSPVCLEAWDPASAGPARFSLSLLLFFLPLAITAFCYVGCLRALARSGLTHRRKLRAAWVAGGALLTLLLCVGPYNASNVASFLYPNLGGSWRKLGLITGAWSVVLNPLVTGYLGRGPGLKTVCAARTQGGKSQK
smiles,measurement,setting,value
COc1ccc(/C=C/c2cc(OC)cc(OCc3ccc(OCC(=O)O)c(F)c3)c2)cc1,pEC50,[1],5.82
same,pEC50,[2],5.07
same,pEC50,[3],5.32
same,Activity,Mus musculus [4],Active
same,microsomal CLint,[5],27.1 µL/min/mg
same,half-life,[6],51.2 min
same,Activity,Mus musculus [7],Active
same,Activity,Mus musculus [8],Active
same,Activity,Mus musculus [9],Active
same,Activity,Mus musculus [10],Active
same,Activity,Mus musculus [11],Active
same,Activity,Mus musculus [12],Active
same,Activity,Mus musculus [13],Active
same,Activity,Mus musculus [14],Active
same,Activity,Mus musculus [15],Active
same,Activity,Mus musculus [16],Active
same,Activity,Mus musculus [17],Active
same,Activity,Mus musculus [18],Active
same,Activity,Mus musculus [19],Active
same,Activity,Mus musculus [20],Active
same,Activity,Mus musculus [21],Active
same,Activity,Mus musculus [22],Active
same,Activity,[23],Non-Toxic
same,Activity,[24],Non-Toxic
same,Activity,[25],Non-Toxic
same,Activity,[26],Non-Toxic
same,Activity,[27],Non-Toxic
